Article PMC6332508, “A Promising PET Tracer for Imaging of α7 Nicotinic Acetylcholine Receptors in the Brain: Design, Synthesis, and in Vivo Evaluation of a Dibenzothiophene-Based Radioligand” (Molecules, 2015)
Where two headings read alike, the source gives them in different places.

Assays:
α3β4 nAChR = target: α3β4 nAChR; parameters: method as in PMID 24050653; settings: rat receptor subtype; cited from earlier work
[1] = target: T1, dopamine transporter (DAT) (Homo sapiens, UniProt Q01959); test: Off-target radioligand binding assay, DAT; settings: 1 μM; significant at ≥50% inhibition or stimulation
T1 construct: Eurofins Panlabs, Inc
Experimental: (§1) The activity of compound 10a was evaluated by a contract research organization (Eurofins Panlabs, Inc.). The test concentration was 1 μM and radioligand binding assays for dopamine transporter (DAT), serotonin transporter (SERT), norepinephrine transporter (NET), monoamine transporter (VMAT), choline transporter, and α1 nAChR performed according to the manufacturer’s protocols.

α1 nAChR = target: T2, α1 nAChR (Homo sapiens, UniProt P02708+P07510+Q07001); test: Off-target radioligand binding assay, α1 nAChR; settings: 1 μM; significant at ≥50% inhibition or stimulation
T2 construct: Eurofins Panlabs, Inc
T2 sequence (P02708 21-457): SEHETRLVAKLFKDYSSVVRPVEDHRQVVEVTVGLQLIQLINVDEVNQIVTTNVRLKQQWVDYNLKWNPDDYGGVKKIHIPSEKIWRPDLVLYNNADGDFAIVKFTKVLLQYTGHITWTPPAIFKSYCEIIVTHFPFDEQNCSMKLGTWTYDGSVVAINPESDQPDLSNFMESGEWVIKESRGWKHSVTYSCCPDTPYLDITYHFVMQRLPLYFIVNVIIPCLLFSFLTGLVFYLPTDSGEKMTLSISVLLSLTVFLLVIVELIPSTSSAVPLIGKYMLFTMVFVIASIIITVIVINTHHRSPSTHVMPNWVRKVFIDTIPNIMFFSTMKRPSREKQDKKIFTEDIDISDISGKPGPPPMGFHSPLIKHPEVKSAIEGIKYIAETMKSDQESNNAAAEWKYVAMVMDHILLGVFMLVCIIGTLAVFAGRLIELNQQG
T2 sequence (P11230 24-501 partner): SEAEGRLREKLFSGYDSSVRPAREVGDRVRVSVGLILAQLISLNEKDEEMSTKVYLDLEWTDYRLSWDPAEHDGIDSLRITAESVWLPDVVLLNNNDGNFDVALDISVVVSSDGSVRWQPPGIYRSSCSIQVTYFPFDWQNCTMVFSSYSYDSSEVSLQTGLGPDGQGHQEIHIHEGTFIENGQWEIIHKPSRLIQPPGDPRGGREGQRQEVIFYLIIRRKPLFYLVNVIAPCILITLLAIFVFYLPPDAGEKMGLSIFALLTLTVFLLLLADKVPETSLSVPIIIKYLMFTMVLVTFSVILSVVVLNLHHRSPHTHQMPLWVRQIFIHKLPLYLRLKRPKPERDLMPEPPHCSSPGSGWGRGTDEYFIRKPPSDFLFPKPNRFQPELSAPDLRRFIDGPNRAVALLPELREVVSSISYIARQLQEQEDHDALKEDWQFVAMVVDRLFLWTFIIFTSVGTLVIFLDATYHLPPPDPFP
T2 sequence (Q07001 22-517): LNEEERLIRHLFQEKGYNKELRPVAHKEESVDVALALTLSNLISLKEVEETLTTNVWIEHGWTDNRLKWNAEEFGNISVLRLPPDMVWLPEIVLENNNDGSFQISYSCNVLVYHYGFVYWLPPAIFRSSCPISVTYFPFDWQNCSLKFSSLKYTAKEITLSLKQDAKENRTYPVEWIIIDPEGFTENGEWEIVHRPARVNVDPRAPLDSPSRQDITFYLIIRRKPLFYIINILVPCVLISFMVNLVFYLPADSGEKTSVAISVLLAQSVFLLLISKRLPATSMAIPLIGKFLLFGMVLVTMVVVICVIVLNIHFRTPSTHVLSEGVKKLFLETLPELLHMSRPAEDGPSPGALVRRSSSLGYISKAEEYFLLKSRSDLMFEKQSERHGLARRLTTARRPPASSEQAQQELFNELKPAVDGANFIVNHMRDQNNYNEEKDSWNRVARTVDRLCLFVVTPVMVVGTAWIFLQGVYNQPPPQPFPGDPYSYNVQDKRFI
T2 sequence (P07510 23-517): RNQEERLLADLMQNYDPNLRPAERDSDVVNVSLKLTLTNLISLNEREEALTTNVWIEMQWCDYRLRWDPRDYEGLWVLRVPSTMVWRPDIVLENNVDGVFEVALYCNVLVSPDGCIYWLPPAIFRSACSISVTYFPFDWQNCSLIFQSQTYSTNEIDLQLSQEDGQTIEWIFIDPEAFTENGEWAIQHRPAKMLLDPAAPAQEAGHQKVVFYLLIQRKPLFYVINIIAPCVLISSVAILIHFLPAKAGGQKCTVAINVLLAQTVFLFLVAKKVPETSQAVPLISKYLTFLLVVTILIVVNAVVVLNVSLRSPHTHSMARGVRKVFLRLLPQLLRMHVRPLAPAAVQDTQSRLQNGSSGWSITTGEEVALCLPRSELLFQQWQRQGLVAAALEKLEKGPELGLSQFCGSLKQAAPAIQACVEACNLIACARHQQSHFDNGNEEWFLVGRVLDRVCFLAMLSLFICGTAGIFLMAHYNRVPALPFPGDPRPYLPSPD
Experimental: as §1

[2] = target: T3, serotonin transporter (SERT) (Homo sapiens, UniProt P31645); test: Off-target radioligand binding assay, SERT; settings: 1 μM; significant at ≥50% inhibition or stimulation
T3 construct: Eurofins Panlabs, Inc
T3 sequence (P31645 whole entry, species assumed): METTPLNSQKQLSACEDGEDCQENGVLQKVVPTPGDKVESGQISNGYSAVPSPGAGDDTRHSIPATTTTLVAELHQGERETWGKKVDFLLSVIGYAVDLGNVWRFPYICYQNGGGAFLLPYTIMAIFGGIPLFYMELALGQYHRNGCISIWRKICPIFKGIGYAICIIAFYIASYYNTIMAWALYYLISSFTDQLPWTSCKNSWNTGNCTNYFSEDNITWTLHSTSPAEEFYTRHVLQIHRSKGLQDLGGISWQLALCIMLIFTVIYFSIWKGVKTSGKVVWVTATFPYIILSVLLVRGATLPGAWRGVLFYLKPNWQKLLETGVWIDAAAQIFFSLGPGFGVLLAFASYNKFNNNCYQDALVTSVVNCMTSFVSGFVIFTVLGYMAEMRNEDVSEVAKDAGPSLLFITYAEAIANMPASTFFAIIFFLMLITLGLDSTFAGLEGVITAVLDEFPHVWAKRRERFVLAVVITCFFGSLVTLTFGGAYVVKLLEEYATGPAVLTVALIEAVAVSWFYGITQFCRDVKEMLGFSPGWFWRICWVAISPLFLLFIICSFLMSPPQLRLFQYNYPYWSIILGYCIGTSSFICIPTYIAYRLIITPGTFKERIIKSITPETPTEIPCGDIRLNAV
Experimental: as §1

[3] = target: T4, norepinephrine transporter (NET) (Homo sapiens, UniProt P23975); test: Off-target radioligand binding assay, NET; settings: 1 μM; significant at ≥50% inhibition or stimulation
T4 construct: Eurofins Panlabs, Inc
T4 sequence (P23975 whole entry, species assumed): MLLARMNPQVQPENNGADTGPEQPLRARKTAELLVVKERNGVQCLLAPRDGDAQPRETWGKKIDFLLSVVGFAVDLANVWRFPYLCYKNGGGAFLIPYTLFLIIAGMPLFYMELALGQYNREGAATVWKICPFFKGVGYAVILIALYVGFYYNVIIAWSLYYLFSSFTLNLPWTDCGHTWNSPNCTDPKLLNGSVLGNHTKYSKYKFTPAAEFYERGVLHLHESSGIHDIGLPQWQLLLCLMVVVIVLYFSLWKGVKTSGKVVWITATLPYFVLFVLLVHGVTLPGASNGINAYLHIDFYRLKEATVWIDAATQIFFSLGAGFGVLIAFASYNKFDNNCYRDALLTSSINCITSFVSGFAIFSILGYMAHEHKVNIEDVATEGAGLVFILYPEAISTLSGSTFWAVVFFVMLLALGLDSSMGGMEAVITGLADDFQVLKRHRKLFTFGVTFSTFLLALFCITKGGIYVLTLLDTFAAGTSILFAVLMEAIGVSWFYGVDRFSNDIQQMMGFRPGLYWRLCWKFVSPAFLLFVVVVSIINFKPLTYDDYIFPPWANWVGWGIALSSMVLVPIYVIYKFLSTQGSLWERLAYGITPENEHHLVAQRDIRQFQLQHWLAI
Experimental: as §1

[4] = test system: monoamine transporter (VMAT); test: Off-target radioligand binding assay, VMAT; settings: 1 μM; significant at ≥50% inhibition or stimulation
Experimental: as §1

rat α6β2* nAChR = rat α6β2* nAChR (Rattus norvegicus, UniProt P12390+P43143); test: [3H]epibatidine binding to antibody-immobilized native rat α6β2* nAChR from striatum; settings: read-out: Affinity (Ki in nM) rα6β2*, immunoimmobilization with anti-rα6 antibody, [3H]epibatidine 0.1 nM
Experimental: The specificity of the anti-α6 antibody was tested as described. The receptors were prepared and immobilized as previously described by the subunit-specific antibody. […] Incubations were performed in a buffer containing 50 mM Tris-HCl, pH 7, 150 mM NaCl, 5 mM KCl, 1 mM MgCl2, 2.5 mM CaCl2, 2 mg∙mL^−1 BSA, and 0.05% Tween 20. Specific ligand binding was defined as total binding minus the binding in the presence of 100 nM (±)-epibatidine dihydrochloride hydrate.
The experimental data obtained from the binding experiments were analyzed by means of a non-linear least square procedure using the LIGAND program. The Ki values of the test compounds were also determined by means of the LIGAND program by simultaneously fitting the data obtained from three to five independent saturation and competition binding experiments.

human α3β4 nAChR = target: T5, human α3β4 nAChR (Homo sapiens, UniProt P30926+P32297); test: Radioligand displacement at human α3β4 nAChR, [3H]epibatidine, HEK293 cells; type: binding; settings: stably transfected HEK-293 cells, [3H]epibatidine; read-out: Affinity (Ki in nM) hα3β4
T5 construct: expressed in transfected cells; host or cells: HEK293
Experimental: (§2) The affinity of the test compounds for human α4β2 and α3β4 nAChR was determined as described above. In brief, HEK293 cells stably expressing human α4β2 or α3β4 nAChR [66] were cultured. […] Nonspecific binding was determined in the presence of 300 μM (−)-nicotine tartrate. Incubation of the samples, separation of free from receptor-bound radioligand, and data evaluation were performed as described above.

α7 nAChR [5] = settings: [125I]α-bungarotoxin labelled rat cortical membranes; cited from earlier work
human α7 nAChR = target: T6, human α7 nAChR (Homo sapiens, UniProt P36544); test: Radioligand displacement at human α7 nAChR, [3H]methyllycaconitine, SH-SY5Y cells; type: binding
T6 construct: expressed in transfected cells; host or cells: SH-SY5Y
T6 sequence (P36544 23-502): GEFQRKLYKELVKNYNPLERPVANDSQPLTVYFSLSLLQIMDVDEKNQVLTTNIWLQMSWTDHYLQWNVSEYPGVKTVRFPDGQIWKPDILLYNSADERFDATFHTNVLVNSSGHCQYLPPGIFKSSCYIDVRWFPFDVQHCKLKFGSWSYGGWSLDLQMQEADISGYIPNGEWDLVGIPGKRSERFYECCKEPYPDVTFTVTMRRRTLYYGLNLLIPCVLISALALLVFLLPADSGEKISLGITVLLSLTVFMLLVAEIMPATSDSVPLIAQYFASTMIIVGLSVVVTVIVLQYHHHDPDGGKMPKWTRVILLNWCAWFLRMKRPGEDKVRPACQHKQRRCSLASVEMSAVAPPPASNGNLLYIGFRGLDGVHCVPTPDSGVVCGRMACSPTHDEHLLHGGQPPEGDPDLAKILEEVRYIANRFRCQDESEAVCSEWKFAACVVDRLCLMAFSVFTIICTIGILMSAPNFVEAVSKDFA

human 5-HT3 receptor = target: T7, human 5-HT3 receptor (Homo sapiens, UniProt P46098); test: Radioligand binding at human 5-HT3 receptor, [3H]GR65630 (Eurofins Panlabs)
T7 construct: host or cells: HEK-293
T7 sequence (P46098 24-478): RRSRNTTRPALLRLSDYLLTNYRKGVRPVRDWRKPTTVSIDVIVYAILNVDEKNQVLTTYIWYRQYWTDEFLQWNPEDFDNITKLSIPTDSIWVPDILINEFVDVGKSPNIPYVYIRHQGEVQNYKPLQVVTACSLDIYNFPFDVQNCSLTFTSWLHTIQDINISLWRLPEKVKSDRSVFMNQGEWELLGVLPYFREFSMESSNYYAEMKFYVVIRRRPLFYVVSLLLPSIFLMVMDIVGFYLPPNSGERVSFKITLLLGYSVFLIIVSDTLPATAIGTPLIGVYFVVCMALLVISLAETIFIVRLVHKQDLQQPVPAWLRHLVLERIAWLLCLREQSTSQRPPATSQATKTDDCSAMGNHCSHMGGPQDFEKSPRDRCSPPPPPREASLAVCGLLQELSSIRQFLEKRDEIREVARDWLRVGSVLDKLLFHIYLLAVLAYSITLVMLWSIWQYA

choline transporter = target: T8, choline transporter (Homo sapiens, UniProt Q9GZV3); test: Off-target radioligand binding assay, choline transporter; settings: 1 μM; significant at ≥50% inhibition or stimulation
T8 construct: Eurofins Panlabs, Inc
T8 sequence (Q9GZV3 1-580): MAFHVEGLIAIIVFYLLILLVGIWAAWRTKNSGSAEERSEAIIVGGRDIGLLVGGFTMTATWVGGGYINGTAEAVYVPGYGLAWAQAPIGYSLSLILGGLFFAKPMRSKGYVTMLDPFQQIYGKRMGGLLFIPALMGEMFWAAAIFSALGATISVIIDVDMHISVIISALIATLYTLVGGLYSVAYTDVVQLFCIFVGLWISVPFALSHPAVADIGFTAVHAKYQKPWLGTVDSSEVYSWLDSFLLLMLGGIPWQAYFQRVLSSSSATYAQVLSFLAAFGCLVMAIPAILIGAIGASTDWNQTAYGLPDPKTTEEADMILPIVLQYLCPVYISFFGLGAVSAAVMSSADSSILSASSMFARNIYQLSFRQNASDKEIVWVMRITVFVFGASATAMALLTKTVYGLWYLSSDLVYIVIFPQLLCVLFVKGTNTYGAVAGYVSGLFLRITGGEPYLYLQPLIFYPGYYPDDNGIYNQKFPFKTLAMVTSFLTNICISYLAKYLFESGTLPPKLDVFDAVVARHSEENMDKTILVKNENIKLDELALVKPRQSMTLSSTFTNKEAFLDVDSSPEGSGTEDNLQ
Experimental: as §1

[6] = Acute toxicity study in rats, single intravenous injection; type: in vivo, Wistar rats
Experimental: The acute toxicity of 10a was assessed when administered by a single intravenous injection to rats followed by an observation period of 2 or 15 day (Hameln rds, Modra, Slovak Republic). The study was performed with 4 test groups, including 1 control and 3 dose groups (6.2, 62 and 620 μg∙kg^−1), with 60 males and 60 females Wistar rats divided into two experiment cohorts: Day 2 (40 males and 40 females) and Day 15 (20 males and 20 females). The animals were weighed and allocated to the test groups based on their body weights. The animals were sacrificed in two time periods (day 2 and day 15 after test item administration) and then examined macroscopically and histopathologically. The following parameters were evaluated: mortality, clinical observation, body weights, food consumption, haematology (white blood cells, red blood cells, hemoglobin, hematocrit, mean corpuscular volume, mean corpuscular hemoglobin, platelets, lympohcytes, neutrophils, eosinophils, basophils, monocytes), clinical chemistry (alkaline phosphatase, aspartate aminotransferase, alanine aminotransferase, glucose, cholesterol, triacylglycerols, creatinine, urea, bilirubin, albumin, calcium, phosphorus, sodium, potassium chloride), pathology and histopathology.

human α4β2 nAChR = target: T9, human α4β2 nAChR (Homo sapiens, UniProt P17787+P43681); test: Radioligand displacement at human α4β2 nAChR, [3H]epibatidine, HEK293 cells; type: binding; settings: stably transfected HEK-293 cells, [3H]epibatidine; read-out: Affinity (Ki in nM) hα4β2
T9 construct: expressed in transfected cells; host or cells: HEK293
T9 sequence (P43681 29-627 limits assumed): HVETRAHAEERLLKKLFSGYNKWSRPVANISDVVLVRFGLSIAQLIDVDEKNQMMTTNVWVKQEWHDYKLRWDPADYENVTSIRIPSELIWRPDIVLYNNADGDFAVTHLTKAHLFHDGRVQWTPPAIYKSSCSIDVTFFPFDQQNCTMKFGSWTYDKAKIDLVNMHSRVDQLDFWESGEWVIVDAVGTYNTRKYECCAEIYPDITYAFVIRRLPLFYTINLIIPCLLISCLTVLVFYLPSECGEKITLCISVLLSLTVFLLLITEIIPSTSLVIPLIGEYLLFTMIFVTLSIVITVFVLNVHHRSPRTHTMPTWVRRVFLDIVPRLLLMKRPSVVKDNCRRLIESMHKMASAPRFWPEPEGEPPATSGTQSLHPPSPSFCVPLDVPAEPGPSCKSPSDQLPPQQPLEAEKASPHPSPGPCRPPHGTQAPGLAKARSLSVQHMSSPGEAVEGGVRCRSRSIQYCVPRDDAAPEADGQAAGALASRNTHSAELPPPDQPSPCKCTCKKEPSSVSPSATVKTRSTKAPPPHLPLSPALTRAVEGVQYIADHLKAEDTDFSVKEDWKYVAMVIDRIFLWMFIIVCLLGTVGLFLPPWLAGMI
T9 sequence (P17787 26-502): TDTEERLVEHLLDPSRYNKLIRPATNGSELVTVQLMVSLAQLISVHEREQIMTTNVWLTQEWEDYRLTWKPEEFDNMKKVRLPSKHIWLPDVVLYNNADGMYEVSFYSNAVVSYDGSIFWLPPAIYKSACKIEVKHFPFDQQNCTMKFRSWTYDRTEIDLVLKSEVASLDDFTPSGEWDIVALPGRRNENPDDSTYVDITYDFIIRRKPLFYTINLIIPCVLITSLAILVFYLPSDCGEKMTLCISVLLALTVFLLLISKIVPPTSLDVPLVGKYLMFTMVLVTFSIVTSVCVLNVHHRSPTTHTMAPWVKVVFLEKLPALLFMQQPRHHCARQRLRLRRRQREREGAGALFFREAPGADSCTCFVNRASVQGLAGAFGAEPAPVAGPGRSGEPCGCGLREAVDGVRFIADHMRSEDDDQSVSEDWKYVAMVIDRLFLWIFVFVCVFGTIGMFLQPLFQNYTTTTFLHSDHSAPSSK
Experimental: as §2

α7 nAChR [7] = target: α7 nAChR; parameters: method as in PMID 22281189; settings: cited from earlier work

Compound: O=S1(=O)c2ccc(F)cc2-c2ccc(N3CCN4CCC3CC4)cc21 [Compound 10a, 7-(1,4-Diazabicyclo[3.2.2]nonan-4-yl)-2-fluorodibenzo[b,d]thiophene 5,5-dioxide]
- Ki (α3β4 nAChR): 5000 nM
- binding to DAT [1]: no significant binding
- binding to α1 nAChR (α1 nAChR): no significant binding
- binding to SERT [2]: no significant binding
- binding to NET [3]: no significant binding
- binding to VMAT [4]: no significant binding
- Ki (rat α6β2* nAChR): 589 ± 217 nM
- Ki (human α3β4 nAChR): 119 ± 29 nM
- Ki (α7 nAChR [5]): 1.4 nM
- Selectivity (Ki ratio) α7/α3β4 (human α7 nAChR; Ki hα3β4 divided by Ki hα7): 198
- Selectivity (Ki ratio) α7/α4β2 (human α7 nAChR; Ki hα4β2 divided by Ki hα7): 862
- Ki (human α7 nAChR; stably transfected SH-SY5Y cells, [3H]methyllycaconitine, read-out: Affinity (Ki in nM) hα7): 0.6 ± 0.44 nM
- inhibition at 0.1 µM (human 5-HT3 receptor; 0.1 μM concentration of test compound, [3H]GR65630 binding, read-out: 5-HT3 percentage of inhibition): 2%
- Ki (human 5-HT3 receptor; recombinant HEK293 cells, [3H]GR65630, estimated from seven concentrations (20 μM–5 nM), read-out: Affinity (Ki in nM) 5-HT3): 440 nM
- binding to choline transporter (choline transporter): no significant binding
- body weights, control vs treated groups ([6]; 6.2, 62 and 620 μg∙kg^−1 single i.v., either gender): No statistically significant differences
- clinical observation ([6]; 6.2, 62 and 620 μg∙kg^−1 single i.v., rats): no notable clinical effects
- pathological and histopathological parameters ([6]; single i.v., Day 2 or Day 15, rats): did not result in changes
- no observed effect level (NOEL) ([6]; single intravenous injection, rats, observation 2 or 15 day): 0.62 mg/kg
- Ki (human α4β2 nAChR): 517 ± 375 nM

Compound: CCN(CC)CCOc1ccc2c(c1)C(=O)c1cc(OCCN(CC)CC)ccc1-2 [tilorone]
- Ki (α7 nAChR [7]): 56 nM
